Counter-ions that a name gives are not always drawn. Like-named read-outs stand apart in the source and are kept apart here.
How the values were obtained:
[1] = Antiasthmatic test (Goose, Immunology 16, 749, 1969); format: in vivo
ptosis due to reserpine = experiment: Antagonism to ptosis due to reserpine (antidepressive activity); format: in vivo; conditions: po
Description: Antagonism to ptosis due to reserpine (B. M.

Analgesic activity = format: in vivo; conditions: for analgesic activity (in words): in vivo; for ED100: sc
adrenalin [2] = conditions: comparison value with reference (c) Arcari, Brit. J. Pharmacol. 34, 700; cited from earlier work
adrenalin [3] = conditions: iv, comparison value with reference (d) Arcari, Experientia 28, 819; cited from earlier work
adrenalin [4] = experiment: Antiadrenalin activity in vivo (b)
Description: (b) F. P. Luduena et al., Arch. Int. Pharmacodyn. 122, 111,
(d) G. Arcari et Coll., Experientia 28, 819,

BaCl2 = experiment: Anti BaCl2 activity (spasmolytic) (e)
Description: (e) Magnus Pflugers Arch. ges. Physiol., 102, 123,

triptamine = experiment: Antitriptaminic activity in vivo (g); conditions: sc, read-out: Antitriptaminic activity in vivo ED50
Description: (g) S. J. Corne et al., Brit. J. Pharmacol., 20, 106, 1963

adrenalin [5] = experiment: Antiadrenalin activity in vitro (a); conditions: for adrenolytic activity (in words): as seen from the table (in vitro and in vivo); for Antiadrenalin activity in vitro EC50: in vitro (a), adrenolytic
Description: (a) J. Brugger, Helv. Physiol. Pharm. Acta 3, 117,
(c) G. Arcari & coll., Brit. J. Pharmacol. 34, 700,

[6] = Pharmacological properties, classical tests on laboratory animals; conditions: in vivo
Description: The compounds claimed in the present invention show interesting pharmacological properties, evidenced by means of classical tests on laboratory animals at extremely low doses.

5HT = experiment: Anti 5HT activity in vitro (f); conditions: for anti-serotininic activity (in words): as seen from the table; for Anti 5HT activity in vitro EC50: in vitro (f)
[7] = in vivo (b), iv, read-out: Antiadrenalin activity in vivo ED50

SMILES: O=C(O)c1cc(=O)c2c(OCC(O)COc3cccc4oc(C(=O)O)cc(=O)c34)cccc2o1 [sodium chromoglycate]
- ED100 ([1]; iv): 5 mg/kg
- antiasthmatic activity by route ([1]; parenteral versus oral route): active only by the parenteral route, not by the oral route

SMILES: CSc1c2c3c(cccc3n1C)[C@H]1C[C@@H](COC(=O)N3CCCCCC3)CN(C)[C@@H]1C2 [Compound 16, D-1,6-dimethyl-2-methylthio-8beta(perhydroazepinylcarbonyloxymethyl)ergoline maleate]
- ED100 (ptosis due to reserpine): 0.1 mg/kg

SMILES: CSc1c2c3c(cccc3n1C)[C@H]1C[C@@H](COC(=O)N(C)C)CN(C)[C@@H]1C2 [Compound 12, D-1,6-dimethyl-2-methylthio-8beta(dimethylaminocarbonyloxymethyl)ergoline maleate]
- ED100 (ptosis due to reserpine): 0.025 mg/kg
- analgesic activity (in words) (Analgesic activity): potent analgesic activity
- ED100 (Analgesic activity): 2.5 mg/kg

SMILES: CO[C@]12C[C@@H](COC(=O)c3cncc(Br)c3)CN(C)[C@@H]1Cc1cn(C)c3cccc2c13 [nicergoline]
- Antiadrenalin activity in vitro EC50 (adrenalin [2]): 7 ng/mL
- Antiadrenalin activity in vivo ED50 (adrenalin [3]): 20 μg/kg/iv

SMILES: CSc1[nH]c2cccc3c2c1C[C@@H]1[C@@H]3C[C@@H](COC(=O)N2CCCCCC2)CN1C [Compound 10, D-6-methyl-2-methylthio-8beta(perhydroazepinylcarbonyloxymethyl)ergoline]
- ED50 (adrenalin [4]; route not printed there, read-out: adrenolytic ED50): 0.02 mg/kg
- ED100 ([1]; po, per os): 1 mg/kg

SMILES: COc1ccc(Cc2nccc3cc(OC)c(OC)cc23)cc1OC [papaverine, reference compound]
- Anti BaCl2 activity EC50 (BaCl2): 8900 ng/mL

SMILES: CSc1c2c3c(cccc3n1C)[C@H]1C[C@@H](COC(=O)N3CCCCC3)CN(C)[C@@H]1C2 [Compound 15, D-1,6-dimethyl-2-methylthio-8beta(piperidinocarbonyloxymethyl)ergolinemaleate]
- ED100 (ptosis due to reserpine): 0.01 mg/kg

SMILES: CSc1c2c3c(cccc3n1C)[C@H]1C[C@@H](COC(=O)N3CCOCC3)CN(C)[C@@H]1C2 [Compound 17, D-1,6-dimethyl-2-methylthio-8beta(morpholinecarbonyloxymethyl)ergoline]
- ED100 (ptosis due to reserpine): 0.5 mg/kg

SMILES: CSc1[nH]c2cccc3c2c1C[C@@H]1[C@@H]3C[C@@H](COC(=O)N2CCOCC2)CN1C [Compound 11, D-6-methyl-2-methylthio-8beta(morpholinocarbonyloxymethyl)ergoline]
- ED50 (triptamine; in vivo (g)): 0.05 mg/kg
- adrenolytic activity (in words) (adrenalin [5]): high
- Antiadrenalin activity in vitro EC50 (adrenalin [5]): 1.3 ng/mL
- pharmacological properties (in words) [6]: broad spectrum of pharmacologycal properties
- ED50 (adrenalin [4]; [7]): 0.0188 mg/kg
- Anti BaCl2 activity EC50 (BaCl2): 10000 ng/mL
- anti-serotininic activity (in words) (5HT): high
- Anti 5HT activity in vitro EC50 (5HT): 0.01 ng/mL

SMILES: CSc1[nH]c2cccc3c2c1C[C@@H]1[C@@H]3C[C@@H](COC(=O)N2CCCCC2)CN1C [Compound 9, D-6-methyl-2-methylthio-8beta(piperidinocarbonyloxymethyl)ergoline]
- ED50 (triptamine; in vivo (g)): 10 mg/kg
- adrenolytic activity (in words) (adrenalin [5]): high
- Antiadrenalin activity in vitro EC50 (adrenalin [5]): 1.8 ng/mL
- pharmacological properties (in words) [6]: broad spectrum of pharmacologycal properties
- ED50 (adrenalin [4]; [7]): 0.031 mg/kg
- Anti BaCl2 activity EC50 (BaCl2): 2200 ng/mL
- anti-serotininic activity (in words) (5HT): high
- Anti 5HT activity in vitro EC50 (5HT): 1 ng/mL

SMILES: CN(C)CCCN1c2ccccc2CCc2ccccc21 [imipramine, reference compound]
- ED100 (ptosis due to reserpine): 25 mg/kg

SMILES: CSc1c2c3c(cccc3n1C)[C@H]1C[C@@H](COC(=O)N3CCCC3)CN(C)[C@@H]1C2 [Compound 14, D-1,6-dimethyl-2-methylthio-8beta(pyrrolidinocarbonyloxymethyl)ergoline ma leate]
- ED100 (ptosis due to reserpine): 0.025 mg/kg
- analgesic activity (in words) (Analgesic activity): potent analgesic activity
- ED100 (Analgesic activity): 5 mg/kg

SMILES: CCC(=O)O[C@](Cc1ccccc1)(c1ccccc1)[C@H](C)CN(C)C [D-propoxyphene, reference compound]
- ED100 (Analgesic activity): 10 mg/kg

SMILES: CCN(CC)C(=O)OC[C@@H]1C[C@@H]2c3cccc4c3c(c(SC)n4C)C[C@H]2N(C)C1 [Compound 13, D-1.6-dimethyl-2-methylthio-8beta(diethylaminocarbonyloxymethyl)ergoline maleate]
- ED100 (ptosis due to reserpine): 0.5 mg/kg

SMILES: CN1C[C@H](CNC(=O)OCc2ccccc2)C[C@@H]2c3cccc4c3c(cn4C)C[C@H]21 [metergoline, reference compound]
- ED50 (triptamine): 0.062 mg/kg

Reference: patent US4197299A, “Anti-hypertensive derivatives of ergoline-2-thioethers and their sulphoxides” (priority 1977, dated 1980)
